Assay [1] addresses T1, Pin1 (Homo sapiens, UniProt Q13526). Kind of assay: Molt4 cells competition with Pin1-3 desthiobiotin probe, streptavidin pull-down and immunoblot (Pin1 engagement). The class given is cell-based. Set-up: endogenous in cells; host or cells: Molt4. The note with it: Molt4 cells treated 5 h, streptavidin pull-down, immunoblot. The procedure: FIG. 4 is an immunoblot displaying the result of Molt4 cells treated in a competition format with the indicated concentrations of Pin1-3, Pin1-3 P1, and Pin1-3 P2 for 5 h, followed by cell lysis, incubation with TM-03-163 (Pin1-3 desthiobiotin), streptavidin pull-down, and immunoblot analysis. […] Molt4 cells were treated in a competition format with Pin1-3, Pin1-3 P1, and Pin1-3 P2 for 5 h, followed by cell lysis, incubation with […] (Pin1-3 desthiobiotin), followed by streptavidin pulldown and immunoblot analysis.
On the technique in general: A western blot detects proteins with antibodies after separation by electrophoresis.

The target in assay [2] is T1, Pin1. The assay is described as follows: Fluorescence polarization (FP) assay, binding to Pin1. To be noted: for pKi: 1 h incubation with Pin1, read-out: Ki (binding affinity to Pin1, Kenakin Ki from FP EC50). The procedure:
FIG. 3 is a fluorescence polarization readout following 1 h incubation of the indicated compounds with Pin1. Data points are plotted as the average of n=3 independent samples+SEM. Binding affinity to Pin1 was determined using a fluorescence polarization assay. Ki values obtained from the FP assay results were derived from the Kenakin Ki equation: Kenakin Ki=(Lb)(EC50)(Kd)/(Lo)(Ro)+Lb(Ro−Lo+Lb−Kd), where Kd [M]: Kd of the probe, EC50 [M]: obtained from FP assay, total tracer Lo [M]: probe concentration in FP, bound tracer Lb [M]: 85% of probe concentration binds to target protein, total receptor Ro [M]: Pin1 concentration in the FP assay, as described (Auld et al. Receptor binding assays for HTS and drug discovery. in Assay Guidance Manual eds. Sittampalam, G.S., et al. Eli Lilly & Company and the National Center for Advancing Translational Sciences, 2004).
In general terms: Polarisation of emitted light reports the rotation of a fluorescent probe.

pKi: −log10 of the molar value. “Also recorded” adds a separate entry of the source.

As a reminder, the pKi is −log10 of the Ki, conventionally taken in molar units.

T1 sequence (Q13526 whole entry): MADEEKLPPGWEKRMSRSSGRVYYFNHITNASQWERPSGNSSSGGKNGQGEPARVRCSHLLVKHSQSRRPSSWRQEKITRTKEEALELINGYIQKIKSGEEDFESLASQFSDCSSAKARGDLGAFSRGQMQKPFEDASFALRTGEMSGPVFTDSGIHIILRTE

In the case of `CC(C)(C)CN(C(=O)CCl)[C@@H]1CCS(=O)(=O)C1` (single isomer, unassigned) [Pin1-3 P1], the “Engagement of Pin1 in Molt4 cells” value on Pin1 [1] is “engages Pin1 more potently than Pin1-3”. The negative-log Ki (pKi) at Pin1 [2] is about 7.15.

`CC(C)(C)CN(C(=O)CCl)C1CCS(=O)(=O)C1` (racemic) [Pin1-3, reference compound]: on Pin1 [2], the negative logarithm of the Ki (pKi) was about 6.54.

Consider `CC(C)(C)CN(C(=O)CCl)[C@H]1CCS(=O)(=O)C1` [Pin1-3 P2, (S)-2-chloro-N-(1,1-dioxidotetrahydrothiophen-3-yl)-N-neopentylacetamide], for which the “Engagement of Pin1 in Molt4 cells” value at Pin1 [1] was “did not display engagement; also recorded: no engagement”. The “Ki (binding affinity to Pin1, Kenakin Ki from FP EC50)” value at Pin1 [2] (1 h incubation with Pin1) was “unable to be determined”.
